The text below walks through data of patent US5464859A, “Benzospiroalkene derivatives” (Adir et Compagnie, priority 1993, dated 1995).

In one experiment the test system is femoral arteries. Briefly: In vitro contraction of dog femoral arteries (agonist concentration/effect curve). Particulars: Canis lupus familiaris, ARTERY; for EC50: femoral artery rings, dog, 37° C.; for Emax: maximum effect relative to maximum effect caused by 100 mM KCl, read-out: Max (% KCl). Here is the method:
(§1) In vitro study on the femoral arteries and saphenous veins of dogs
(§2) The technique used is based on that described by Fowler et at. (J. Pharmacol. Exp. Ther., 229, 712-718, 1984). Male or female mongrel dogs weighing approximately 15-25 kg were used as organ sources. The animals are anesthetized with pentrobarbital (30 mg/kg, intravenously). Incisions are made in the legs and the vessels are withdrawn. They are placed in Krebs-Ringer liquid (NaCl 118 mM, NaHCO3 25 mM, Glucose 10 mM, KCl 4.7 mM, CaCl2 1.25 mM, MgSO4 1.19 mM, KH2 PO4 1.14 mM) at room temperature and while bubbling with carbogen (95% O2, 5% CO2). These vessels are then carefully freed from their fat, then cut into rings with a width of 2 mm and mounted under a base tension of 4 g (femoral arteries) or 1 g (saphenous veins) in vessels thermostatically controlled at 37° C. containing Krebs-Ringer liquid through which carbogen is constantly bubbling. A lower hook constitutes the set point whereas the upper hook is connected to an isometric force sensor. The tension variations are digitized, stored on disk and processed by a computer system. After mounting, the organs, are left at rest for 90 minutes, rinsings being carried out every 30 min. After readjusting the base tension, a contraction is caused by a single dose of KCl (100 mM). After stabilisation, washing and returning to the base line, a contraction is provoked by a single dose of phenylephrine (submaximal concentration) in order to regularize the following contractions. After washing and returning to the base line, a concentration/effect curve is produced by addition of cumulative doses of agonist (the spacing between the doses is a half-log). This experiment makes it possible to calculate the 50% effective concentration (EC5.sbsb.0) in the following way: the tension values are first converted to percentages with respect to the maximum effect caused by 100 mM of KCl. This EC5.sbsb.0 is determined by non-linear regression by the Simplex method (M. S. Caceci, Byte, 340-362, 1984), calculated according to the model of the law of mass action of L. Michaelis and M. L. Menten (Biochem. Zeitschrifft, 49, 333-369, 1913). E=(Emax*C^n)(EC^n +C^n) where E=effect, Emax=maximum effect, C=concentration, EC=EC5.sbsb.0 and n=Hill number.

In a further experiment the test system is saphenous veins. Description: In vitro contraction of dog saphenous veins (agonist concentration/effect curve). Particulars: Canis lupus familiaris, VEIN; for Emax: maximum effect relative to maximum effect caused by 100 mM KCl, read-out: Max (% KCl); for EC50: saphenous vein rings, dog, 37° C. Here is the method:
as §1, §2

The next experiment relates to 1 or 2 -adrenergic. Description: In vivo study on amyelous rats (arterial pressure increase, with or without prazosin or yohimbine). The note with it: for ED (20 mmHg): Rattus norvegicus, iv, Control (no antagonist), increasing cumulative doses every 20 seconds, tertatolol pretreatment, read-out: C20 (concentration which increases the pressure by 20 mmHg); for Ratio C20 treated/C20 control: pretreated with yohimbine (1 mg/kg). Set-up: species or system Male Sprague-Dawley rats. The source says:
In vivo study on AMYELOUS RATS
Male Sprague-Dawley rats (300-400 g) are anesthatized with ether. A cannula is inserted in the trachea, the spinal cord is destroyed using a steel rod and the animal is immediately placed under artificial respiration. The vagus nerves are sectioned. The carotid arteries are ligatured and a catheter is placed in one and is used to record the arterial pressure. Three other catheters are placed in the jugular veins and the vein of the penis and are used for injections. The temperature of the animals is maintained at 36° C. The animal is pretreated with an injection of tertatolol ([…]). The animal is also pretreated 10 minutes afterwards with prazosin ([…]) or yohimbine (1 mg/kg) when it is wished to determine the 1 or 2 -adrenergic properties of the product. Ten minutes later, increasing cumulative doses of product are injected every 20 seconds. The medal pressure variations are detected using a P23XL Statham pressure cell and are recorded. The pressure values are expressed in mmHg. This experiment makes it possible to calculate the concentration which increases the pressure by 20 mmHg (C2.sbsb.0) by non-linear regression according to the model of the Michaelis and Menten mass action law as described above. The maximum effect obtained is then converted to a percentage with respect to the maximum effect caused by phenylephrine. The 1 or 2 -adrenergic components of the product are estimated using the ratio of the C2.sbsb.0 values obtained in the presence of prazosin or of yohimbine to the values obtained in the absence of these antagonists. In amyelous rats, the products of the invention induce hypertensions which are inhibited more by prazosin than by yohimbine.

The structures appear in SMILES notation. Counter-ions that a name gives are not always drawn.

Consider `COc1cccc2c1CCC1(CNC=N1)C2` (stereo not drawn) [Example 5, Spiro[(1,3-diazacyclopent-1-ene)-5,2'-(5'-methoxy-1',2',3',4'-tetrahydronaphthalene)]], for which, in the experiment on femoral arteries, the half-maximal effective concentration (EC50) is 1500 nM and the Emax amounted to 93%. In addition, in the experiment on saphenous veins, the Emax was determined as 100% and a half-maximal response (EC50) required 6400 nM.
As to `COc1ccc(OC)c2c1CCC1(CNC=N1)C2` (single isomer, unassigned) [Example 7, Spiro[(1,3-diazacyclopent-1-ene)-5,2'-(5',8'-dimethoxy-1',2',3',4'-tetrahydro-naphthalene)]fumarate, isomer α], in the experiment on femoral arteries, the EC50 was 30 nM and the Emax came to 95%. In the experiment on saphenous veins, the Emax was determined as 109% and the EC50 stood at 120 nM.
For `COc1ccc(SC)c2c1CC1(CC2)CNC=N1` (stereo not drawn) [Example 6, Spiro[(1,3-diazacyclopent-1-ene)-5,2'-(5'-methylthio-8'-methoxy-1',2',3',4'-tetrahydronaphthalene)]fumarate], in that order: 80 nM, 85%, 98% and 800 nM.
Turning to `CCOc1ccc(OCC)c2c1CCC1(CNC=N1)C2` (stereo not drawn) [Example 3, Spiro[(1,3-diazacyclopent-1-ene)-5,2'-(5',8'-diethoxy-1',2',3',4'-tetrahydronaphthalene) fumarate], in the experiment with 1 or 2 -adrenergic, the ED (20 mmHg) is 0.6 µg/kg and the “Ratio C20 treated/C20 control” value stood at 8.
For `CCOc1ccc(OC)c2c1CCC1(CNC=N1)C2` (stereo not drawn) [Example 2, Spiro[(1,3-diazacyclopent-1-ene)-5,2'-(5'-ethoxy-8'-methoxy-1',2',3',4'-tetrahydronaphthalene)]fumarate], in that order: 0.06 µg/kg and 5.
With `COc1ccc(OC)c2c1CCC1(CNC=N1)C2` (stereo not drawn) [Example 1, Spiro[(1,3-diazacyclopent-1-ene)-5,2'-(5',8'-dimethoxy-1',2',3',4'-tetrahydronaphthalene)]fumarate], in the experiment with femoral arteries, it took 160 nM to reach a half-maximal effect (EC50) and the Emax amounted to 72%. Besides, in the experiment on saphenous veins, the Emax came out at 100% and the EC50 was found to be 200 nM. Further, the “Ratio C20 treated/C20 control” value with 1 or 2 -adrenergic came to 11.
